# Laboratory results published in patent US20140155397A1, “EMT SIGNATURES AND PREDICTIVE MARKERS AND METHOD OF USING THE SAME” (Board of Regents, priority 2011, published 2014).
# Where two headings read alike, the source gives them in different places.
# How the values were obtained:
# NSCLC cell lines = assay: Drug sensitivity (growth inhibition, MTS assay) of epithelial versus mesenchymal NSCLC cell lines; type: cell-based
# Source text: (§1) Average values were used for analysis as described. […] Chou T. C., et al., Quantitative Analysis of Dose-Effect Relationships: The Combined Effects of Multiple Drugs or Enzyme Inhibitors. Adv Enzyme Regul.
# The EMT signature was derived in 54 DNA fingerprinted NSCLC cell lines profiled on Affymetrix U133A, B, and Plus2.0 arrays and tested on the Illumina WGv2 and WGv3 platforms and in an independent set of head and neck cancer lines (HNC). E-cadherin and other protein levels were quantified by reverse phase protein array and correlated with the first principal component of the EMT signature. IC50s were determined for NSCLC cell lines by MTS assay. Response to erlotinib was evaluated in patients treated in the BATTLE clinical trial using eight-week disease […] and progression free survival.
# A549 = assay: Proliferation, CellTiter-Glo Luminescent Cell Viability; type: cell-based; settings: Homo sapiens, single agent
# Source text: as §1
# Calu-1 = assay: as above; type: cell-based; settings: Homo sapiens, single agent
# Source text: as §1
# H1299 = assay: as above; type: cell-based; settings: Homo sapiens, NCI-H1299, single agent
# Source text: as §1
# H157 = assay: as above; type: cell-based; settings: Homo sapiens, NCI-H157, single agent
# Source text: as §1
# H2882 = assay: as above; type: cell-based; settings: NCI-H2882, single agent
# Source text: as §1
# H460 = assay: as above; type: cell-based; settings: Homo sapiens, NCI-H460, single agent
# Source text: as §1
# [1] = test system: Cells expressing high levels of Axl; assay: Proliferation of six mesenchymal cell lines expressing high levels of Axl (summary); type: cell-based; settings: single agent
# Source text: as §1
# NSCLC patients = assay: BATTLE clinical trial, 8-week disease control and progression-free survival; type: in vivo, human
# Source text: BATTLE (Biomarker-integrated Approaches of Targeted Therapy for Lung Cancer Elimination) was a randomized, biomarker-based clinical trial for patients with recurrent or metastatic NSCLC in the second-line setting (Trial registration ID: NCT00409968). Kim E. S. H. R., The BATTLE Trial: Personalizing Therapy for Lung Cancer, Cancer Discovery 1:43-51 (2011). mRNA from tumors obtained via core-needle biopsy at enrollment were profiled on Human Gene 1.0 ST array, Affymetrix. Array results were deposited in the GEO repository (GSE33072).
# We used pretreatment gene expression profiles (Affymetrix […]) from 101 chemo-refractory patients in our Biomarkers-Integrated Approaches of Targeted Therapy for Lung Cancer Elimination (BATTLE) treated with E, E+bexarotene (EB), sorafenib (S), or vandetanib (V). 24 cases of with EGFR & KRAS tumors treated with E or EB were compared to train the signature (two-sided t-test), using the primary end-point of the trial[8-week disease control (8 with DC)]. Principal component (PC) analysis and a logistic regression model were used to develop the signature. Gene expression profiles from 108 NSCLC cell lines (Illumina), with available E IC50 (N=94) and DNA methylation profiling (N=66, Illumina), were used for in vitro studies.
smiles,measurement,setting,value
NC1(c2ccc(-c3nc4ccn5c(=O)[nH]nc5c4cc3-c3ccccc3)cc2)CCC1 [MK2206],Fold higher mean IC50 in mesenchymal versus epithelial cell lines,NSCLC cell lines; all NSCLC cell lines,1.5 fold
Nc1ncnc2c1nc(N)n2[C@@H]1O[C@H](CO)[C@@H](O)[C@H]1O [8-amino-adenosine],Fold higher mean IC50 in mesenchymal versus epithelial cell lines,NSCLC cell lines; all NSCLC cell lines,1.7 fold
CNC(=O)c1cc(Oc2ccc(NC(=O)Nc3ccc(Cl)c(C(F)(F)F)c3)cc2)ccn1 [sorafenib],Fold higher mean IC50 in mesenchymal versus epithelial cell lines,NSCLC cell lines; all NSCLC cell lines,not more resistant
CS(=O)(=O)N1CCN(Cc2cc3nc(-c4cccc5[nH]ncc45)nc(N4CCOCC4)c3s2)CC1 [GDC0941],Fold higher mean IC50 in mesenchymal versus epithelial cell lines,NSCLC cell lines; all NSCLC cell lines,1.9 fold
"C#Cc1cccc(Nc2ncnc3cc(OCCOC)c(OCCOC)cc23)c1 [Erlotinib, erlotinib]",Sensitivity of mesenchymal cells,"NSCLC cell lines; SGI-7079 versus erlotinib, p<0.001 by Wilcoxon test",uniformly resistant
same,Fold higher mean IC50 in mesenchymal versus epithelial cell lines,NSCLC cell lines; all NSCLC cell lines,3.7 fold
same,Fold higher mean IC50 in mesenchymal versus epithelial cell lines,NSCLC cell lines; subset with wild-type EGFR and wild-type KRAS,2 fold
same,IC50,A549,13.5 µM
same,IC50,Calu-1,> 100 µM
same,IC50,H1299,> 100 µM
same,IC50,H157,48.5 µM
same,IC50,H2882,> 100 µM
same,IC50,H460,> 100 µM
same,IC50,[1]; read-out: IC50 range across cell lines,≥ 13.5 µM
same,IC50,[1]; read-out: Mean IC50 across cell lines,77 µM
same,8-week DC rate,NSCLC patients; 5-gene signature-negative group,0%
same,8-week DC rate,NSCLC patients; 5-gene signature-positive group,83%
same,Median PFS,NSCLC patients; signature-negative group,7.2 weeks
same,Median PFS,NSCLC patients; signature-positive group,12.5 weeks
same,Progression-free survival hazard ratio,"NSCLC patients; signature-positive versus signature-negative group, 95% CI 0.03-0.46",0.12
same,Patients with 8-week disease control (DC),NSCLC patients; wildtype EGFR and KRAS patients with mesenchymal signatures,1/5
